Measured values taken from patent US20250171431A1, “HETEROCYCLIC INHIBITORS OF IGF-1R FOR TREATMENT OF DISEASE” (HORIZON THERAPEUTICS IRELAND DAC, priority 2023, published 2025).

Assays:
[1] = molecular target: T1, IGF-1R (Homo sapiens (Human), UniProt P08069); experiment: Example B-1: IGF-1R Assay (PC3 cells, IGF1 stimulation, AlphaLISA); type: cell-based; settings: 200 ng/mL IGF1 stimulation, read-out: Biological Activity against IGF-1R IC50
Summary of the method: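 Readout is AlphaLISA signal from lysed PC3 cells, expressed as % inhibition versus vehicle and EC80 controls and banded by IC50. Before lysis, the cells were starved of serum for 2 h, exposed to 3× serially diluted compound for 2 h, and stimulated for 30 min with 200 ng/mL IGF1 (final).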
Target sequence in this assay (P08069 31-1367): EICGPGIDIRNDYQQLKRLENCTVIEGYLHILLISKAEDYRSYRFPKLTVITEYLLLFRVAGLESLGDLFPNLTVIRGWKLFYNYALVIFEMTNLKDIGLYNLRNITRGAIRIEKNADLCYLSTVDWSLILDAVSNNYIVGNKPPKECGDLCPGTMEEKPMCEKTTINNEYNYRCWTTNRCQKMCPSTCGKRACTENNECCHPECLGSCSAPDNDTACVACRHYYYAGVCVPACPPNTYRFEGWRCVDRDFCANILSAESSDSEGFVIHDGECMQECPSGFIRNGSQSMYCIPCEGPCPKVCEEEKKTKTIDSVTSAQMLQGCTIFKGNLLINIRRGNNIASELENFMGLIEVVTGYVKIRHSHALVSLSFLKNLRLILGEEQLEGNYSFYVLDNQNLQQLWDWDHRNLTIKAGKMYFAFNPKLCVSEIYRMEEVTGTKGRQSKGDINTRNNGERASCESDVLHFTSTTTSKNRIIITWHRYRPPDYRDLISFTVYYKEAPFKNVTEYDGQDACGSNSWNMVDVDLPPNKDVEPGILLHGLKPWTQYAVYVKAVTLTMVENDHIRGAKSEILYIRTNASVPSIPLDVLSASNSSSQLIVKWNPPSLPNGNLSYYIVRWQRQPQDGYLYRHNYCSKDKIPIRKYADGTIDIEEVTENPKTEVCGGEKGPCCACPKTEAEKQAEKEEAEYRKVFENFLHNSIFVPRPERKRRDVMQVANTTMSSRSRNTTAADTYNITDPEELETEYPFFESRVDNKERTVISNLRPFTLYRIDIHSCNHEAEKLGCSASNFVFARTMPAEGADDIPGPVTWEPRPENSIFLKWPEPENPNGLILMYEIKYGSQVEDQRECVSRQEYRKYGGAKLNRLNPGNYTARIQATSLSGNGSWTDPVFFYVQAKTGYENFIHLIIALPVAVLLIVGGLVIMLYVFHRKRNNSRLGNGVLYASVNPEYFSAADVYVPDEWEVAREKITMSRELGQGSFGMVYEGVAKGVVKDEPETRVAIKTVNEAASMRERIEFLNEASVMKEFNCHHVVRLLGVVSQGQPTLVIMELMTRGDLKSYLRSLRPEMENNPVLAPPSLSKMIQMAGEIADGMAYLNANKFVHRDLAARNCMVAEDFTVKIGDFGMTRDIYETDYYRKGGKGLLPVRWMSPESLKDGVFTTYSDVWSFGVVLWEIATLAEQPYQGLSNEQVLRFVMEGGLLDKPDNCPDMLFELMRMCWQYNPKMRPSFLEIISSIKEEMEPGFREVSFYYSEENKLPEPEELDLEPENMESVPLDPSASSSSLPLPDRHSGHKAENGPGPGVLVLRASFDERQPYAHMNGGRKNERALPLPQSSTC

[2] = molecular target: T1, IGF-1R; experiment: Example B-2: IGF-1R Assay (PathHunter cell lines, EC80 agonist challenge); type: cell-based; settings: read-out: IC50 (Biological Activity against IGF-1R)
Protocol: PathHunter cell lines were expanded from freezer stocks according to standard procedures. Cells were seeded in a total volume of 20 μL into white walled, 384-well microplates and incubated for the appropriate time prior to testing.
Cells are pre-incubated with compound followed by EC80 agonist challenge as follows: • 1. Intermediate dilution of sample stocks was performed to generate 5× sample in assay buffer. • 2. 5 μL of 5× sample was added to cells and incubated at 37° C. for 60 minutes. Vehicle concentration was 1%. • 3. 5 μL of 6×EC80 agonist in assay buffer was added to the cells and incubated at room temperature for 3 hours.
Assay signal was generated through a single addition of 12.5 or 15 μL (50% v/v) of PathHunter Detection reagent cocktail for agonist and antagonist assays respectively, followed by a one hour incubation at room temperature. Microplates were read following signal generation with a PerkinElmer Envision™ instrument for chemilumine-scent signal detection.
Compound activity was analyzed using CBIS data analysis suite (ChemInnovation, CA). Percentage inhibition was calculated using the following formula: % Inhibition=100%×(1−(mean RLU of test sample−mean RLU of vehicle control)/(mean RLU of EC80 control−mean RLU of vehicle control)). The activity for representative examples of the invention is shown in the following table, wherein A: IC50≤500 nM; B: 500 nM<IC50≤2 μM; C: […]≤10 μM; D: IC50>[…].
Target sequence in this assay (P08069 31-1367, species assumed): as the sequence (P08069 31-1367) above

| IC50 [1] | IC50 [2] | Structure (SMILES) |
| --- | --- | --- |
| 500 to 2000 nM | 500 to 2000 nM | CN1CCOc2ccc(Nc3nccc(Nc4cnc5cc(F)c(F)cc5c4)n3)cc21 [Compound 150, N4-(6,7-difluoroquinolin-3-yl)-N2-(4-methyl-3,4-dihydro-2H-benzo[b][1,4]oxazin-6-yl)pyrimidine-2,4-diamine] |
| ≤ 500 nM | ≤ 500 nM | COc1cc(Nc2nccc(Nc3cnc4ccccc4c3)n2)ccc1O[C@H]1CC[C@H](N(C)C)CC1 [Compound 17, 2-{3-methoxy-4-[(1r,4r)-4-(dimethylamino)cyclohexyloxy]phenylamino}-4-(3-quinolylamino)pyrimidine] |
| ≤ 500 nM | 500 to 2000 nM | COc1cc(Nc2nccc(Nc3cc4cccc(F)c4[nH]c3=O)n2)cnc1C1CCNCC1 [Compound 223, 8-fluoro-3-{2-[5-methoxy-6-(4-piperidyl)-3-pyridylamino]-4-pyrimidinylamino}-1,2-dihydro-2-quinolinone] |
| ≤ 500 nM | ≤ 500 nM | COc1cc(C2CCN(CC#N)CC2)ccc1Nc1nccc(Nc2cc3cccc(F)c3[nH]c2=O)n1 [Compound 213, (4-{4-[4-(8-fluoro-2-oxo-1,2-dihydro-3-quinolylamino)-2-pyrimidinylamino]-3-methoxyphenyl}-1-piperidyl)acetonitrile] |
| ≤ 500 nM | ≤ 500 nM | CN(C)CC1COc2cc(Nc3nccc(Nc4cnc5ccccc5c4)n3)ccc2O1 (centres unmarked) [Compound 135, N2-(2-((dimethylamino)methyl)-2,3-dihydrobenzo[b][1,4]dioxin-6-yl)-N4-(quinolin-3-yl)pyrimidine-2,4-diamine] |
| 500 to 2000 nM | 500 to 2000 nM | c1ccc2ncc(Nc3ccnc(Nc4ccc5c(ccn5CC5CCOCC5)c4)n3)cc2c1 [Compound 501, 4-(3-quinolylamino)-2-{1-[(tetrahydro-2H-pyran-4-yl)methyl]-5-indolylamino}pyrimidine] |
| ≤ 500 nM | ≤ 500 nM | CN(C)CC(=O)N1CCc2cc(Nc3nccc(Nc4cnc5ccc(Cl)cc5c4)n3)ccc21 [Compound 146, 1-(5-((4-((6-chloroquinolin-3-yl)amino)pyrimidin-2-yl)amino)indolin-1-yl)-2-(dimethylamino)ethan-1-one] |
| 2000 to 10000 nM | 2000 to 10000 nM | c1ccc2ncc(Nc3ccnc(Nc4ccc5ccn(CC6CCCCC6)c5c4)n3)cc2c1 [Compound 503, 2-[1-(cyclohexylmethyl)-6-indolylamino]-4-(3-quinolylamino)pyrimidine] |
| ≤ 500 nM | ≤ 500 nM | COc1cc(C2CCOCC2)ncc1Nc1nccc(Nc2cc3cccc(F)c3[nH]c2=O)n1 [Compound 214, 8-fluoro-3-{2-[4-methoxy-6-(tetrahydro-2H-pyran-4-yl)-3-pyridylamino]-4-pyrimidinylamino}-1,2-dihydro-2-quinolinone] |
| ≤ 500 nM | ≤ 500 nM | CN(C)CC1COc2cc(Nc3nccc(Nc4cnc5cc(F)c(F)cc5c4)n3)ccc2O1 (centres unmarked) [Compound 169, 4-(6,7-difluoro-3-quinolylamino)-2-{2-[(dimethylamino)methyl]-2,3-dihydro-1,4-benzodioxin-6-ylamino}pyrimidine] |
| ≤ 500 nM | 500 to 2000 nM | COc1nc(C2CCOCC2)ccc1Nc1nccc(Nc2cc3cccc(F)c3[nH]c2=O)n1 [Compound 224, 8-fluoro-3-{2-[2-methoxy-6-(tetrahydro-2H-pyran-4-yl)-3-pyridylamino]-4-pyrimidinylamino}-1,2-dihydro-2-quinolinone] |
| 500 to 2000 nM | 500 to 2000 nM | Clc1ccc2ncc(Nc3ccnc(Nc4ccc5c(c4)OCCO5)n3)cc2c1 [Compound 170, 4-(6-chloro-3-quinolylamino)-2-(2,3-dihydro-1,4-benzodioxin-6-ylamino)pyrimidine] |
| ≤ 500 nM | ≤ 500 nM | CN(C)CC1COc2cc(Nc3nccc(Nc4cnc5ccc(Cl)cc5c4)n3)cnc2O1 (centres unmarked) [Compound 177, 4-(6-chloro-3-quinolylamino)-2-{3-[(dimethylamino)methyl]-2,3-dihydro-1,4-dioxa-5-aza-7-naphthylamino}pyrimidine] |
| ≤ 500 nM | ≤ 500 nM | CN(C)CC(=O)N1CCc2ccc(Nc3nccc(Nc4cnc5ccccc5c4)n3)cc21 [Compound 92, 2-(dimethylamino)-1-{6-[4-(3-quinolylamino)-2-pyrimidinylamino]-1-indolinyl}-1-ethanone] |
| ≤ 500 nM | ≤ 500 nM | CN(C)CC1COc2cc(Nc3nccc(Nc4cnc5ccccc5c4)n3)cnc2O1 (centres unmarked) [Compound 178, 2-{3-[(dimethylamino)methyl]-2,3-dihydro-1,4-dioxa-5-aza-7-naphthylamino}-4-(3-quinolylamino)pyrimidine] |
| 2000 to 10000 nM | 500 to 2000 nM | CN(C)CC1COc2ncc(Nc3nccc(Nc4cnc5ccc(Cl)cc5c4)n3)cc2O1 (centres unmarked) [Compound 500, 4-(6-chloro-3-quinolylamino)-2-{2-[(dimethylamino)methyl]-2,3-dihydro-1,4-dioxa-5-aza-7-naphthylamino}pyrimidine] |
| ≤ 500 nM | 500 to 2000 nM | COc1cc(N2CCNC3(CC3)C2)ncc1Nc1nccc(Nc2cnc3ccc(Cl)cc3c2)n1 [Compound 496, 4-(6-chloro-3-quinolylamino)-2-{6-(4,7-diaza-7-spiro[2.5]octyl)-4-methoxy-3-pyridylamino}pyrimidine] |
| ≤ 500 nM | 500 to 2000 nM | COc1nc(C2CCN(CC#N)CC2)ccc1Nc1nccc(Nc2cc3cccc(F)c3[nH]c2=O)n1 [Compound 212, (4-{5-[4-(8-fluoro-2-oxo-1,2-dihydro-3-quinolylamino)-2-pyrimidinylamino]-6-methoxy-2-pyridyl}-1-piperidyl)acetonitrile] |
| ≤ 500 nM | ≤ 500 nM | CN(C)CC1COc2cc(Nc3nccc(Nc4cnc5ccc(C(F)F)cc5c4)n3)ccc2O1 (centres unmarked) [Compound 497, 4-[6-(difluoromethyl)-3-quinolylamino]-2-{2-[(dimethylamino)methyl]-2,3-dihydro-1,4-benzodioxin-6-ylamino}pyrimidine] |
| ≤ 500 nM | ≤ 500 nM | CN(C)CC(=O)N1CCc2ccc(Nc3nccc(Nc4cnc5ccc(Br)cc5c4)n3)cc21 [Compound 130, 1-(6-((4-((6-bromoquinolin-3-yl)amino)pyrimidin-2-yl)amino)indolin-1-yl)-2-(dimethylamino)ethan-1-one] |
| ≤ 500 nM | ≤ 500 nM | COc1cc(C2CCN(CC#N)CC2)ncc1Nc1nccc(Nc2cc3cccc(F)c3[nH]c2=O)n1 [Compound 211, (4-{5-[4-(8-fluoro-2-oxo-1,2-dihydro-3-quinolylamino)-2-pyrimidinylamino]-4-methoxy-2-pyridyl}-1-piperidyl)acetonitrile] |

| Structure (SMILES) | IC50 [1] | IC50 [2] |
| --- | --- | --- |
| COc1cc(Nc2nccc(Nc3cnc4c(F)c(F)ccc4c3)n2)cnc1O[C@H]1C[C@@H](N(C)C)C1 [Compound 291, 4-(7,8-difluoro-3-quinolylamino)-2-{5-methoxy-6-[(1s,3s)-3-(dimethylamino)cyclobutoxy]-3-pyridylamino}pyrimidine] | ≤ 500 nM | 500 to 2000 nM |
| COc1cc(Nc2nccc(Nc3cnc4ccc(C(F)F)cc4c3)n2)ccc1O[C@H]1C[C@H](N(C)C)C1 [Compound 162, 4-[6-(difluoromethyl)-3-quinolylamino]-2-{3-methoxy-4-[(1r,3r)-3-(dimethylamino)cyclobutoxy]phenylamino}pyrimidine] | ≤ 500 nM | 500 to 2000 nM |
| COc1cc(Nc2nccc(Nc3cnc4c(c3)OCCO4)n2)ccc1O[C@H]1C[C@H](N(C)C)C1 [Compound 357, 4-(2,3-dihydro-1,4-dioxa-5-aza-7-naphthylamino)-2-{3-methoxy-4-[(1r,3r)-3-(dimethylamino)cyclobutoxy]phenylamino}pyrimidine] | ≤ 500 nM | ≤ 500 nM |
| COc1cc(Nc2nccc(Nc3cnc4ccc(Cl)nc4c3)n2)ccc1O[C@H]1C[C@@H](N(C)C)C1 [Compound 10, 4-(6-chloro-1,5-diaza-3-naphthylamino)-2-{3-methoxy-4-[(1s,3s)-3-(dimethylamino)cyclobutoxy]phenylamino}pyrimidine] | ≤ 500 nM | 500 to 2000 nM |
| COc1cc(Nc2nccc(Nc3cnc4ccccc4c3)n2)ccc1O[C@H]1C[C@@H](N(C)C)C1 [Compound 204, 2-{3-methoxy-4-[(1s,3s)-3-(dimethylamino)cyclobutoxy]phenylamino}-4-(3-quinolylamino)pyrimidine] | ≤ 500 nM | ≤ 500 nM |
| COc1cc(Nc2nccc(Nc3cnc4c(c3)CCC3(CCC3)C4)n2)ccc1O[C@H]1C[C@H](N(C)C)C1 [Compound 77, 4-(6′,8′-dihydro-5′H-spiro[cyclobutane-1,7′-quinolin]-3′-ylamino)-2-{3-methoxy-4-[(1r,3r)-3-(dimethylamino)cyclobutoxy]phenylamino}pyrimidine] | ≤ 500 nM | ≤ 500 nM |
| COc1cc(Nc2nccc(Nc3cc4cc(Cl)ccc4[nH]c3=O)n2)ccc1O[C@H]1C[C@H](N(C)C)C1 [Compound 109, 6-chloro-3-(2-{3-methoxy-4-[(1r,3r)-3-(dimethylamino)cyclobutoxy]phenyl-amino}-4-pyrimidinylamino)-1,2-dihydro-2-quinolinone] | ≤ 500 nM | 500 to 2000 nM |
